Results: patent US20260240876A1, “TREATMENT OF SLEEP APNEA WITH CBD” (Harmony Biosciences Management, Inc., priority 2021, published 2026)

Test system: child and adolescent patients with DEEs
Assay: BELIEVE: Sleep Disturbance Scale for Children (SDSC)
Format: in vivo, human
Conditions: Week 26, negative = improvement, vs revised Baseline mean of completers
Procedure: This was a sequential, multi-stage, open-label, multi-national, multiple-center, multiple-dose study to assess the long-term safety, tolerability, and efficacy of ZYN002 (transdermal CBD gel) in child and adolescent epilepsy patients from 3 to 18 years of age having seizures associated with developmental and epileptic encephalopathies (DEE) according to the International League Against Epilepsy (ILEA) classification (Scheffer et al. 2017). The study was conducted to evaluate efficacy of ZYN002 in DEE patients with ASD. The objective of the study also included evaluating the effects of ZYN002 transdermal CBD gel on QoL, sleep, and caregiver qualitative assessment in child and adolescent patients with DEEs.
• Change from baseline to the end of Period A in the SDSC

C=C(C)C1CCC(C)=CC1c1c(O)cc(CCCCC)cc1O (stereo not shown) [CBD, 2-[3-methyl-6-(1-methylethenyl)-2-cyclohexen-1-yl]-5-pentyl-1,3-benzenediol]
SDSC Sleep Breathing Disorders (SBD), Change from Baseline (All Patients (DEE)): no significant change
SDSC Sleep Breathing Disorders (SBD), Change from Baseline (DEE Patients >70 Total Score): no significant change
SDSC Sleep Breathing Disorders (SBD), Change from Baseline (DEE-ASD Patients >70 Total Score): −6.7
SDSC Sleep Breathing Disorders (SBD), Change from Baseline (DEE-ASD Patients): −3.9
